# Assay results as given in PMC9150124, “Design of a Potent, Selective, and Brain-Penetrant Inhibitor of Wnt-Deactivating Enzyme Notum by Optimization of a Crystallographic Fragment Hit” (Journal of Medicinal Chemistry, 2022).
# Assays:
# Assay in all cases: SelectScreen kinase profiling, SSBK ZLyte SP Technology
# Format in all cases: biochemical
# [1] = biological target: kinase named in conditions (Homo sapiens, UniProt P00519, E255K); settings: ABL1 E255K, 10 μM
# Method: (§1) Kinase selectivity screening was performed by Thermo Fisher Scientific (Paisley, U.K.) in their SelectScreen Biochemical Kinase Profiling Service. Assay information and data are presented in the Supporting Information.
# (§2) Kinase selectivity screening was performed by ThermoFisher Scientific (Paisley, U.K.) in their SelectScreenTM
# (§3) Biochemical Kinase Profiling service .
# [2] = biological target: kinase named in conditions (Homo sapiens, UniProt Q9UPE1); settings: STK23 (MSSK1), 10 μM
# Method: as §1, §2, §3
# [3] = biological target: kinase named in conditions (Homo sapiens, UniProt O43781); settings: DYRK3, 10 μM
# kinase named in conditions (Homo sapiens, UniProt O43781), sequence (O43781 whole entry): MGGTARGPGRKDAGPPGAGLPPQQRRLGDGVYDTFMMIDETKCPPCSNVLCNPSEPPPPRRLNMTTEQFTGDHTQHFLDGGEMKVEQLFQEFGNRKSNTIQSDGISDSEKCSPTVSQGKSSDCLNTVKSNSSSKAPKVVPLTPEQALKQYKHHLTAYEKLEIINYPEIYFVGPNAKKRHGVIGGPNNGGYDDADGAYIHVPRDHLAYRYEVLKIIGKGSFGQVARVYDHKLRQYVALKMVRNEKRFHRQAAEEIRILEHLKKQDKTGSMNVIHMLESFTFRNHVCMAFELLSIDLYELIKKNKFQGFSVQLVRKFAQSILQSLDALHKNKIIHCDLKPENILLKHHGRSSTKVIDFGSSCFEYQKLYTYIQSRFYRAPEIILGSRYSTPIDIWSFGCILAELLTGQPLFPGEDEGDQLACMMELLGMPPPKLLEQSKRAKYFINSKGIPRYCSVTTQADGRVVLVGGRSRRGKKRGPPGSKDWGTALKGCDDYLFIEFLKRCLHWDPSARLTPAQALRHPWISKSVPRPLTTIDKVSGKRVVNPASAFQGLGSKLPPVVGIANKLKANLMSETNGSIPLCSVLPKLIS
# Method: as §1, §2, §3
# [4] = biological target: kinase named in conditions (Homo sapiens, UniProt P10721, T670I); settings: KIT T670I, 10 μM
# Method: as §1, §2, §3
# [5] = biological target: kinase named in conditions (Homo sapiens, UniProt Q9H2X6); settings: HIPK2, 10 μM
# kinase named in conditions (Homo sapiens, UniProt Q9H2X6), sequence (Q9H2X6 whole entry): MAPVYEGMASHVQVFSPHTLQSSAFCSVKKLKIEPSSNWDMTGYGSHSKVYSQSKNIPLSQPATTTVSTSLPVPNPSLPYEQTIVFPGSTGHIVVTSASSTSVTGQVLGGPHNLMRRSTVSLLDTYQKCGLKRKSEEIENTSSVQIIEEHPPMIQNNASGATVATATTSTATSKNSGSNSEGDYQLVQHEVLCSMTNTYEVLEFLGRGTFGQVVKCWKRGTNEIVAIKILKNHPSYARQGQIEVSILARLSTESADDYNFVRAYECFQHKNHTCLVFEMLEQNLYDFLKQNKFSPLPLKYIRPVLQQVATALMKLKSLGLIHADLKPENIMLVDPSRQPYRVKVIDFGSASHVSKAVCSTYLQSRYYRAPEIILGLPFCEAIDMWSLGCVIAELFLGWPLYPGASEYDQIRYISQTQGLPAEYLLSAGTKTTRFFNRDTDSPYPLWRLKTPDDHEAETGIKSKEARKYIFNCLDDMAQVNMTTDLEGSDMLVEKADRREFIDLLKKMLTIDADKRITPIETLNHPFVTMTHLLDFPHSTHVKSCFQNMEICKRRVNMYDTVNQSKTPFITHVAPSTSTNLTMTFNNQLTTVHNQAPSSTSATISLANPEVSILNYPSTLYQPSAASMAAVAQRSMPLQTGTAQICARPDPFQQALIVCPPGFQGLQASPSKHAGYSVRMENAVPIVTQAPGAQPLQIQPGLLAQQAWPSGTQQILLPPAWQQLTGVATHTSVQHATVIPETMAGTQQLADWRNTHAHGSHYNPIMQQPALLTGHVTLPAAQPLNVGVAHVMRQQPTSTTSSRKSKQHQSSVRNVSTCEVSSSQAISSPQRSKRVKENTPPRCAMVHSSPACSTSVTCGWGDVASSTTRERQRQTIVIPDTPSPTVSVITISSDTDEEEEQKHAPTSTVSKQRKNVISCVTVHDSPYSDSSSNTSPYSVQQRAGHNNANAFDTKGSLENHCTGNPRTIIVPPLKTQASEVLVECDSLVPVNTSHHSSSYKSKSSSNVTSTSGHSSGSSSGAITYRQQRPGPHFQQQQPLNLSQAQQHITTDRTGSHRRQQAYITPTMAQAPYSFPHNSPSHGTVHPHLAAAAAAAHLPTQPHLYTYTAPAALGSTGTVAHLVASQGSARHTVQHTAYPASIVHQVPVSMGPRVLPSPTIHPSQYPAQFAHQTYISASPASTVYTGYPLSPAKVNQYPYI
# Method: as §1, §2, §3
# [6] = biological target: kinase named in conditions (Homo sapiens, UniProt P54753); settings: EPHB3, 10 μM
# kinase named in conditions (Homo sapiens, UniProt P54753), sequence (P54753 34-998): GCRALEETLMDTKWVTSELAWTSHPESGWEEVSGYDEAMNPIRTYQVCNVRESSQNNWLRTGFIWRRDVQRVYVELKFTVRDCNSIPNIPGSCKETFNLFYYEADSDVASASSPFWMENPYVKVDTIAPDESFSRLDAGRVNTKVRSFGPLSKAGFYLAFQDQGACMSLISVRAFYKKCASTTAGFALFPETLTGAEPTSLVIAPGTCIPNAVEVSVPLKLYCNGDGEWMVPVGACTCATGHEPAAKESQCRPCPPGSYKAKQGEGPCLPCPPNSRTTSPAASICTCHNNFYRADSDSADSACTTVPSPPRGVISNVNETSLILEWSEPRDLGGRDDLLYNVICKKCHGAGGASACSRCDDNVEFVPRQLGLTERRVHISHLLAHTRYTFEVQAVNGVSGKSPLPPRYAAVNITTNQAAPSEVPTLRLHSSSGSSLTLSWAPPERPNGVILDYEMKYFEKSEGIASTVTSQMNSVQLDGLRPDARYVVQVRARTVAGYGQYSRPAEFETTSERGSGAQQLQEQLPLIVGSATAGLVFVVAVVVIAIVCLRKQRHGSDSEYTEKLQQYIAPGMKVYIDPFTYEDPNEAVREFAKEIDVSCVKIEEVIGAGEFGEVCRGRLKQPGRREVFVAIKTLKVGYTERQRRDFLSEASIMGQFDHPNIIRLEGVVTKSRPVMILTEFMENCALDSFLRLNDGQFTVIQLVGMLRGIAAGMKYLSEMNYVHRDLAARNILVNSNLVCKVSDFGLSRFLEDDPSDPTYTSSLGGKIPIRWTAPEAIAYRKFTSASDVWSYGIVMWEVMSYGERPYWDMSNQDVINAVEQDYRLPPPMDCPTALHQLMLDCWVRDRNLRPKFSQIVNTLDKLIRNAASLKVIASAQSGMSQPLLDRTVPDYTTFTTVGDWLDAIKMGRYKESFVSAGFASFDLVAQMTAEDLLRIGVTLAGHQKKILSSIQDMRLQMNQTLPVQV
# Method: as §1, §2, §3
# [7] = biological target: kinase named in conditions (Homo sapiens, UniProt Q13237); settings: PRKG2 (PKG2), 10 μM
# Method: as §1, §2, §3
# [8] = biological target: kinase named in conditions (Homo sapiens, UniProt Q16816); settings: PHKG1, 10 μM
# Method: as §1, §2, §3
# [9] = biological target: kinase named in conditions (Homo sapiens, UniProt Q5VT25); settings: CDC42 BPA (MRCKA), 10 μM
# Method: as §1, §2, §3
# [10] = biological target: kinase named in conditions (Homo sapiens, UniProt Q8IU85); settings: CAMK1D (CaMKI delta), 10 μM
# Method: as §1, §2, §3
# [11] = biological target: kinase named in conditions (Homo sapiens, UniProt P49841); settings: GSK3B (GSK3 beta), 10 μM
# Method: as §1, §2, §3
# [12] = biological target: kinase named in conditions (Homo sapiens, UniProt P49674, R178C); settings: CSNK1E (CK1 epsilon) R178C, 10 μM
# kinase named in conditions (Homo sapiens, UniProt P49674, R178C), sequence (P49674 whole entry R178C): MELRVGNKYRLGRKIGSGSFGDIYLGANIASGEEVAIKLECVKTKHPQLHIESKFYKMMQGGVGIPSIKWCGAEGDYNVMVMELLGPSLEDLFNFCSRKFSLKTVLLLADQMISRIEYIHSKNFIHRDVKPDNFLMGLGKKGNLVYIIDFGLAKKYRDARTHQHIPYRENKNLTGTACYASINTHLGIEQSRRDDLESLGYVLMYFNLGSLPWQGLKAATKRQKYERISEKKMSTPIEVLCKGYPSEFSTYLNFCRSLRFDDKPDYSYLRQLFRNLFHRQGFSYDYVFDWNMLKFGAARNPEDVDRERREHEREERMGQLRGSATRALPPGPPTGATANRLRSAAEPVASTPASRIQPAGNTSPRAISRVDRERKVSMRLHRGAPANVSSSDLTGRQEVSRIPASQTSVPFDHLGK
# Method: as §1, §2, §3
# [13] = biological target: kinase named in conditions (Homo sapiens, UniProt O75116); settings: ROCK2, 10 μM
# Method: as §1, §2, §3
# [14] = biological target: kinase named in conditions (Homo sapiens, UniProt P08922); settings: ROS1, 10 μM
# Method: as §1, §2, §3
# [15] = biological target: kinase named in conditions (Homo sapiens, UniProt Q13464); settings: ROCK1, 10 μM
# Method: as §1, §2, §3
# [16] = biological target: kinase named in conditions (Homo sapiens, UniProt P53778); settings: MAPK12 (p38 gamma), 10 μM
# Method: as §1, §2, §3
# [17] = biological target: kinase named in conditions (Homo sapiens, UniProt P08581, M1250T); settings: MET M1250T, 10 μM
# Method: as §1, §2, §3
# [18] = biological target: kinase named in conditions (Homo sapiens, UniProt P17612); settings: PRKACA (PKA), 10 μM
# Method: as §1, §2, §3
# [19] = biological target: kinase named in conditions (Homo sapiens, UniProt Q13627); settings: DYRK1A, 10 μM
# Method: as §1, §2, §3
# [20] = biological target: kinase named in conditions (Homo sapiens, UniProt P36896); settings: ACVR1B (ALK4), 10 μM
# Method: as §1, §2, §3
# [21] = biological target: kinase named in conditions (Homo sapiens, UniProt P07948); settings: LYN A, 10 μM
# Method: as §1, §2, §3
# [22] = biological target: kinase named in conditions (Homo sapiens, UniProt O00141); settings: SGK (SGK1), 10 μM
# Method: as §1, §2, §3
# [23] = biological target: kinase named in conditions (Homo sapiens, UniProt P45983); settings: MAPK8 (JNK1), 10 μM
# Method: as §1, §2, §3
# [24] = biological target: kinase named in conditions (Homo sapiens, UniProt Q9Y463); settings: DYRK1B, 10 μM
# kinase named in conditions (Homo sapiens, UniProt Q9Y463), sequence (Q9Y463 whole entry): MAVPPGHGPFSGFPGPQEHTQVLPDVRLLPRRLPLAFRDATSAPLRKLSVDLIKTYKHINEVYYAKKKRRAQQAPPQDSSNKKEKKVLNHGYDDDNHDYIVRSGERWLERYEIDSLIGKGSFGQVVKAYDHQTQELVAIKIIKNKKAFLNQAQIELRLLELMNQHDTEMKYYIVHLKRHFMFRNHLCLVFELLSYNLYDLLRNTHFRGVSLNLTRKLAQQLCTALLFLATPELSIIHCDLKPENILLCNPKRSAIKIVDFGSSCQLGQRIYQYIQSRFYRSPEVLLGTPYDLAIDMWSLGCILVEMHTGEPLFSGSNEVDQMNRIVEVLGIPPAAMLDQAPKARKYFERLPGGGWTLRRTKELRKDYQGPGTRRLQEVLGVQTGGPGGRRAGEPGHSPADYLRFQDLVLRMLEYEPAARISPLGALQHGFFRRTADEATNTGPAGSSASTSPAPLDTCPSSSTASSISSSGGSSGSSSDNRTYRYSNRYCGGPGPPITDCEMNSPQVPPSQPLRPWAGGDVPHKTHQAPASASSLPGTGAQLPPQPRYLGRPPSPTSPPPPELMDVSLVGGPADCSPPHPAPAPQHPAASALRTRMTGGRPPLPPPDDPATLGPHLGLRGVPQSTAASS
# Method: as §1, §2, §3
# [25] = biological target: kinase named in conditions (Homo sapiens, UniProt P10721, V560G); settings: KIT V560G, 10 μM
# Method: as §1, §2, §3
# [26] = biological target: kinase named in conditions (Homo sapiens, UniProt P04049, Y340D/Y341D); settings: RAF1 (cRAF) Y340D Y341D, 10 μM
# Method: as §1, §2, §3
# [27] = biological target: kinase named in conditions (Homo sapiens, UniProt Q9UBS0); settings: RPS6KB2 (p70S6Kb), 10 μM
# kinase named in conditions (Homo sapiens, UniProt Q9UBS0), sequence (Q9UBS0 whole entry): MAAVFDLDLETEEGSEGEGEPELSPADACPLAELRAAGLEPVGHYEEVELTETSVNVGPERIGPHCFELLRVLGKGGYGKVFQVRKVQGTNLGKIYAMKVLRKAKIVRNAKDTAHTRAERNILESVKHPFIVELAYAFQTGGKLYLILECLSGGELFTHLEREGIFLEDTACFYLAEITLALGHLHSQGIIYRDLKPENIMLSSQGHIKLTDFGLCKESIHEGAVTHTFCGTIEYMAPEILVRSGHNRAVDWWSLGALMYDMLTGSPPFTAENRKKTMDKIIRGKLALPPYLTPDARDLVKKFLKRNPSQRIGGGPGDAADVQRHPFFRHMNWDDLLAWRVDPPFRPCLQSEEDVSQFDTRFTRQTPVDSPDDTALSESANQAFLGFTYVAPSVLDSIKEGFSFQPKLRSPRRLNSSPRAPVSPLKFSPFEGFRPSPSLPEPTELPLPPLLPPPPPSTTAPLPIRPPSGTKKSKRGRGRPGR
# Method: as §1, §2, §3
# [28] = biological target: kinase named in conditions (Homo sapiens, UniProt O00506); settings: STK25 (YSK1), 10 μM
# Method: as §1, §2, §3
# [29] = biological target: kinase named in conditions (Homo sapiens, UniProt P29323); settings: EPHB2, 10 μM
# Method: as §1, §2, §3
# [30] = biological target: kinase named in conditions (Homo sapiens, UniProt P45984); settings: MAPK9 (JNK2), 10 μM
# kinase named in conditions (Homo sapiens, UniProt P45984), sequence (P45984 whole entry): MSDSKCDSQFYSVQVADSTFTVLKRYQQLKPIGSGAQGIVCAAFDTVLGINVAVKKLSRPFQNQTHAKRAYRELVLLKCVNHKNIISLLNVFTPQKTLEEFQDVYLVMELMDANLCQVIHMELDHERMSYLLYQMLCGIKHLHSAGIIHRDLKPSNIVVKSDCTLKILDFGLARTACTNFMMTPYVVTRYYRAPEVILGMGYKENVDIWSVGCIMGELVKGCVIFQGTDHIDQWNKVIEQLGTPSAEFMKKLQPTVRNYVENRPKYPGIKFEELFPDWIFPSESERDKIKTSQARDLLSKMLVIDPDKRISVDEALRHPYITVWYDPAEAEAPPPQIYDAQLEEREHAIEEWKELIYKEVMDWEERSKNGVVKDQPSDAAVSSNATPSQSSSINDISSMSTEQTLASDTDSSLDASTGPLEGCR
# Method: as §1, §2, §3
# [31] = biological target: kinase named in conditions (Homo sapiens, UniProt Q14680); settings: MELK, 10 μM
# Method: as §1, §2, §3
# [32] = biological target: kinase named in conditions (Homo sapiens, UniProt P48729); settings: CSNK1A1 (CK1 alpha 1), 10 μM
# kinase named in conditions (Homo sapiens, UniProt P48729), sequence (P48729 whole entry): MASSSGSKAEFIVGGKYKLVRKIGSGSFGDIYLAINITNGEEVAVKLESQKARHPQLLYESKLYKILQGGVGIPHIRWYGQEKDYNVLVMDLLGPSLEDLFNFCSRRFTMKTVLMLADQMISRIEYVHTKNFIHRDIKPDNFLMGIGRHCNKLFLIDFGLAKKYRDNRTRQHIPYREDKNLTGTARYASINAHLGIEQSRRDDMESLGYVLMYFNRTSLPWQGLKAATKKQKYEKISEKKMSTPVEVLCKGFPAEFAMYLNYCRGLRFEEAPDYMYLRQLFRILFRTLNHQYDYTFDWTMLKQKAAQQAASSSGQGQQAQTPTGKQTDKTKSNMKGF
# Method: as §1, §2, §3
# [33] = biological target: kinase named in conditions (Homo sapiens, UniProt P07949, S891A); settings: RET S891A, 10 μM
# Method: as §1, §2, §3
# [34] = biological target: kinase named in conditions (Homo sapiens, UniProt Q96NX5); settings: CAMK1G (CAMKI gamma), 10 μM
# Method: as §1, §2, §3
smiles,measurement,setting,value
"FC(F)(F)c1c(Cl)ccc(-n2ccnn2)c1Cl [8l, 1-(2,4-Dichloro-3-(trifluoromethyl)phenyl)-1H-1,2,3-triazole]",inhibition at 10 µM,[1],13%
same,inhibition at 10 µM,[2],0%
same,inhibition at 10 µM,[3],1%
same,inhibition at 10 µM,[4],10%
same,inhibition at 10 µM,[5],2%
same,inhibition at 10 µM,[6],-8%
same,inhibition at 10 µM,[7],8%
same,inhibition at 10 µM,[8],8%
same,inhibition at 10 µM,[9],-3%
same,inhibition at 10 µM,[10],1%
same,inhibition at 10 µM,[11],7%
same,inhibition at 10 µM,[12],-3%
same,inhibition at 10 µM,[13],16%
same,inhibition at 10 µM,[14],9%
same,inhibition at 10 µM,[15],8%
same,inhibition at 10 µM,[16],2%
same,inhibition at 10 µM,[17],3%
same,inhibition at 10 µM,[18],0%
same,inhibition at 10 µM,[19],0%
same,inhibition at 10 µM,[20],-12%
same,inhibition at 10 µM,[21],-1%
same,inhibition at 10 µM,[22],5%
same,inhibition at 10 µM,[23],6%
same,inhibition at 10 µM,[24],16%
same,inhibition at 10 µM,[25],3%
same,inhibition at 10 µM,[26],10%
same,inhibition at 10 µM,[27],4%
same,inhibition at 10 µM,[28],5%
same,inhibition at 10 µM,[29],2%
same,inhibition at 10 µM,[30],-17%
same,inhibition at 10 µM,[31],12%
same,inhibition at 10 µM,[32],2%
same,inhibition at 10 µM,[33],10%
same,inhibition at 10 µM,[34],2%
